Data from US20240182472A1, “INDAZOLE PYRIDONE COMPOUNDS AND USES THEREOF” (Bluejay Therapeutics, Inc., priority 2022, published 2024).
Like-named read-outs stand apart in the source and are kept apart here.

Assays:
[1] = cited from earlier work
[2] = monkeys, starting at 4 weeks, more pronounced effect at 13 weeks; cited from earlier work
OATP1B1 = target: T1, OATP1B1 (Homo sapiens, UniProt Q9Y6L6); assay type: in vitro ADME
T1 construct: host or cells: HEK293 (HEK293-OATP1B1), stably transfected
T1 sequence (Q9Y6L6 1-691): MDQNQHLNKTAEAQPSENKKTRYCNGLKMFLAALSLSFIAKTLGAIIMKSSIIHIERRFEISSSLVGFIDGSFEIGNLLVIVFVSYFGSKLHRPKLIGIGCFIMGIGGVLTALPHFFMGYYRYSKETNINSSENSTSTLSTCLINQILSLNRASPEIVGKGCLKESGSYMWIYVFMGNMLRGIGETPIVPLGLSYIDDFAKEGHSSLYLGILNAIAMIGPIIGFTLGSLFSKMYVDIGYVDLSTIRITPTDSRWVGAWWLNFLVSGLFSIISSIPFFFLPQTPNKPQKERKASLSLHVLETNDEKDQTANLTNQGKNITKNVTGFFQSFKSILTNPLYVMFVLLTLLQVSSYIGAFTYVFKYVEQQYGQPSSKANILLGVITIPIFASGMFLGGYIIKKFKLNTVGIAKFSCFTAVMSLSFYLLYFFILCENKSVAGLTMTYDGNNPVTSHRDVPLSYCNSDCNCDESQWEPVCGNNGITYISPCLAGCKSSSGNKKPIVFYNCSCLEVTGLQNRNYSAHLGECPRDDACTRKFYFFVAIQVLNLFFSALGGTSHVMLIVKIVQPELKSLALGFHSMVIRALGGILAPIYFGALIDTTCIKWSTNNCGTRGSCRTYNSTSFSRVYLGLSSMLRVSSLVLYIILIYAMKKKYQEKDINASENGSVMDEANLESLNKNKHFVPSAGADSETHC
Method: (§1) The OATP1B1 and OATP1B3 substrate assays were conducted at Wuxi utilizing the human embryonic kidney cell line, HEK293, stably transfected with human transporter genes. The identification of potential transporter substrates are achieved by measuring the Uptake Fold values in the transfected HEK293-OATP1B1 and OATP1B3 cells line and the HEK293-MOCK cell line in the Presence and Absence of positive inhibitors.
(§2) The objective of this study was to determine whether Compound I.2 and Compound I.6 are potential OATP1B1 and OATP1B3 uptake substrates.
(§3) HEK-293 cells stably expressing the human OATP1B1 and OATP1B3 transporter and the HEK293-MOCK cell line were licensed from GenoMembrane (Kanagawa, Japan). The culture medium was DMEM (HEK293-OATP1B3 cells were maintained in DMEM/F12) supplemented with 10.0% FBS, 500 μg/mL G418 sulfate solution, 100 U/mL penicillin-G and 100 μg/mL streptomycin. Cells were incubated in 5.0% CO2 at 37.0° C. with saturated humidity. HEK293-OATP1B1 (Passage: 19), OATP1B3 (Passage: 19), and HEK293-MOCK (Passage: 14 and 16) were grown to 80.0 to 90.0% confluence in the culture flask. Trypsin/EDTA (0.05%/0.02%, w/v) was added to detach the cells from the flask. The cells were seeded onto 96-well plates with a density of 5.00×10^4 cells/well, and then incubated for 24 hours in 5.0% CO2 at 37.0° C. with saturated humidity before being used in the uptake study.
(§4) Pre-incubation: Cell culture medium was removed from the 96-well plates seeded with either HEK293-OATP1B1 and OATP1B3 or HEK293-MOCK cells, followed by rinsing the cells twice with the warm (37.0° C.) Transport Buffer. The cells were then pre-incubated for 30 min with the Transport Buffer in the Presence and Absence of positive inhibitors in 5.0% CO2 at 37.0° C. with saturated humidity.
(§5) Uptake incubation: At the end of the pre-incubation, the buffers were removed and the cells were treated with Compound I.6 or Compound I.2 at 0.100 or 1.00 μM in the presence and absence of positive inhibitor. In separate wells, the marker substrate for transporter cells were incubated with dosing solution (Table A), all treatments were conducted in triplicate wells in 5.0% CO2 at 37.0° C. with saturated humidity.
(§6) Cell lysing: At the end of the incubations, dosing solution was removed. After removing the remaining dosing solution, the cell was rinsed three times with ice-cold Transport Buffer (2.0-8.0° C.) followed by adding 100 μL cold acetonitrile:methanol (95: 5, v: v) containing internal standard into the cells treated with test compound for bioanalysis. For the cells dosed with positive control, the cells were added 100 μL cold acetonitrile:methanol (95:5, v: v) containing internal standard for bioanalysis. All samples were gently shaken for 30 min. Then for test compound and positive control, 75 μL of the cell lysate was mixed with 75 μL of Transport Buffer and 150 μL of cold acetonitrile:methanol (95:5, v:v) containing internal standard. The lysis sample was centrifuged for 10 min at 3220×g before the supernatant, defined as the terminal sample, was taken for the determination of the intracellular uptake of the test compounds or substrate by LC-MS/MS.
(§7) Uptake Fold was calculated using equation (1)

OATP1B3 = target: T2, OATP1B3 (Homo sapiens, UniProt Q9NPD5); assay type: in vitro ADME
T2 construct: host or cells: HEK293 (HEK293-OATP1B3), stably transfected
T2 sequence (Q9NPD5 1-702): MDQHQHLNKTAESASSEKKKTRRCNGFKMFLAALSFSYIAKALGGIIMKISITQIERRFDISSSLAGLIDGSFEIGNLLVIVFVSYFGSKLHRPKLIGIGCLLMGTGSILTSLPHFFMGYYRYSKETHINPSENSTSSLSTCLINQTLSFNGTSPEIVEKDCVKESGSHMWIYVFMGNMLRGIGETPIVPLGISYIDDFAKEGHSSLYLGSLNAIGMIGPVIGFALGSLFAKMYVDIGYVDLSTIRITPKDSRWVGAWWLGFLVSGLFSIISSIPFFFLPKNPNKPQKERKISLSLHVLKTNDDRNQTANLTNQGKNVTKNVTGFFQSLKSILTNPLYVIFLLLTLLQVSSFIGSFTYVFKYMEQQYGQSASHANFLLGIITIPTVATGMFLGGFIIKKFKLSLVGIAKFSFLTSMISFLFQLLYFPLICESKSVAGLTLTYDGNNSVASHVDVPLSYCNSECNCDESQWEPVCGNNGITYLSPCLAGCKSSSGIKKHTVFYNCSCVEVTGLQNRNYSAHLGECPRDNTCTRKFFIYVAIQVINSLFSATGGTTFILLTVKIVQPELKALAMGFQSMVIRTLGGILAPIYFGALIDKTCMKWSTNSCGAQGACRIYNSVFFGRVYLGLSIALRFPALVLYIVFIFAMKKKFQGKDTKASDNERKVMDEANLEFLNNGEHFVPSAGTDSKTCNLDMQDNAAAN
Method: as §1, §2, §3, §4, §5, §6, §7

HBV S-antigen secretion = experiment: HBsAg assay (HepG2 HBV S-antigen secretion biological assay); assay type: cell-based; conditions: Hepatitis B virus, HepG2.2.15, 72 h, read-out: EC50, HBV S-antigen secretion
Method: HepG2.2.15 cells were grown in flasks microscopically and seeded into 96-well plates at a concentration of 6.0×10^4 cells/well and incubated at 37° C., 5% CO2 overnight.
Source plate preparation. The stock concentration of reference compound and test compounds is 20 mM. Firstly, manually diluted the compound to obtain the first concentration points of 10 μM and 200 μM, respectively. Then a 3-fold, 8 points serial dilution is performed to obtain the 200× source plate.
Source plate compounds were pipetted as follows: 3 μL 200× source plate compounds into sterile 2 mL 96 well plate which contain 297 μL 2% FBS Medium, mix well and transfer 100 μL/well to corresponding cell culture plates. Therefore, the test conditions of the final compounds is 1 μM initiation, 3-fold serial dilution, and 8 concentration points in duplicate.
Incubate the cells at 37° C., 5% CO2 for three days.
24 hours post-seeding, the cells were treated with 200 μl/well of media containing serially diluted compounds in DMSO. DMSO alone was used as the no drug control. The final DMSO concentration in all wells was 0.5%.
The HBsAg kit (Auto Biology-CL 0310) was used to determine the level of secreted HBVsAg. The HBSAg assay was performed as follows: • a) Blance the ELISA kit at room temperature for 30 minutes. • b) Add 50 μL standard solution, sample, positive and negative control to each well of the microplate in the kit. • c) Add 50 μL HBsAg enzyme conjugate to each well. • d) Attach the plate membrane, oscillate for 60 seconds, and incubate at 37° C. for 60 minutes. • e) Add 350 μL washing buffer to each well, shake slightly, discard liquid, repeat 6 times. Then pat 5 times on an absorbent paper towel to dry the hole. • f) Add 50 μL mixture of reagent A and B to each well. Oscillate the microplate for 10 seconds. • g) Cover the plate membrane and incubate at room temperature for 10 minutes. Read the luminescent signal using Biotek-Synergy 2.
Compounds inhibition against HBsAg at different concentrations are calculated by the following formula:
Inhibition %=(1−value of sample/ave. value of control)×100
50% effective concentrations (EC50) and were calculated with the GraphPad Prism software.

SMILES | change from baseline of rat caudal nerve NCV, digital NCV, cauda equina latency, digital latency, tibial nerve latency ([1]; 13 weeks, daily doses 20 MPK/day and 60 MPK/day) | nerve conduction velocity (NCV) of several peripheral nerves ([1]; rats, starting at 4 weeks, more pronounced effect at 13 weeks) | nerve conduction velocity (NCV) of several peripheral nerves [2] | Uptake ratio (OATP1B1; 0.1 μM) | Uptake ratio (OATP1B1; 1 μM) | Uptake ratio (OATP1B3; 0.1 μM) | Uptake ratio (OATP1B3; 1 μM) | EC50 (HBV S-antigen secretion) [nM]
COCCOc1cc2c(cc1COC)-c1cc(=O)c(C(=O)O)cn1N1[C@@H]2CCC1(C)C [GS-8873] | greater than 20% | prolong the nerve conduction velocity | prolong the nerve conduction velocity | – | – | – | – | –
CC(C)(C)[C@@H]1Cn2nc3c(OCCCCCCC(=O)O)cccc3c2-c2cc(=O)c(C(=O)O)cn21 [I.2, (R)-6-(tert-butyl)-10-((6-carboxyhexyl)oxy)-2-oxo-6,7-dihydro-2H-pyrido[2′,1′:3,4]pyrazino[1,2-b]indazole-3-carboxylic acid] | – | – | – | 2.87 | 1.10 | 2.23 | 2.34 | 6.5 ± 2.5
CC(C)(C)[C@@H]1Cn2nc3c(OCCCCCCCC(=O)O)cccc3c2-c2cc(=O)c(C(=O)O)cn21 [I.6, (R)-6-(tert-butyl)-10-((7-carboxyheptyl)oxy)-2-oxo-6,7-dihydro-2H-pyrido[2′,1′:3,4]pyrazino[1,2-b]indazole-3-carboxylic acid] | – | – | – | 11.5 | 18.2 | 1.74 | 4.9 | 2.6 ± 0.6
